The text below walks through data of the NIST ThermoML archive (doi:10.1021/acs.jced.6b00268).

± gives the expanded uncertainty stated by the source.

For data set [1] the following is noted: Crystal; DTA.
Data set [2] can be described thus: Molar enthalpy of transition or fusion. The note with it: Crystal; DSC.

In the case of `CC(C)OC(=O)C(C)(C)Oc1ccc(C(=O)c2ccc(Cl)cc2)cc1` [fenofibrate], the Normal melting temperature in data set [1] is 80.47 ± 1.1 °C. Further, in data set [2], the “Molar enthalpy of transition or fusion” value was determined as 31.2 ± 0.7 kJ/mol.
